Test results from article PMC6874683, “Pyrrothiogatain acts as an inhibitor of GATA family proteins and inhibits Th2 cell differentiation in vitro” (Scientific Reports, 2019).

What was measured:
Th2 cytokines = experiment: ELISA of cytokine production, naive CD4+ T cells under Th2 conditions; type: cell-based, mouse; conditions: 30 and 80 µM, 5 days
Method: C57BL/6 mice were purchased from Clea (Clea Japan, Inc., Tokyo, Japan). Total CD4^+ T cells isolated from mouse spleen were prepared using a FITC anti-mouse CD4 antibody (Cat#100510, RM4–5, BioLegend) and anti-FITC-microbeads (Cat#130-097-050, Miltenyi Biotec). Naive CD4^+ T cells (CD44^low, CD62L^high) were prepared using a MojoSort Mouse CD4 T cell Isolation Kit (Cat#480033), BioLegend). Biotinylated anti-CD44 (Cat#103004, IM7) and anti-CD25 antibodies (Cat#102004, PC61) were purchased from BioLegend. […]
The CD4^+ T cells cultured for five days were stimulated using an immobilized anti-TCR-β mAb (3 µg/mL, H57–597, BioLegend) for 16 h, and the culture supernatants were recovered. The amount of cytokines in the recovered supernatants was determined with ELISA using the following antibodies and reagents: anti-IL-4 mAb (Cat#554387, BD Biosciences), biotin-anti-IL-4 mAb (Cat#554390, BD Biosciences), anti-IL-5 mAb (Cat#554393, BD Biosciences), biotin-anti-IL-5 mAb (Cat#554397, BD Biosciences), anti-IFN-γ mAb (Cat#551216, BD Biosciences), biotin-anti-IFN-γ mAb (Cat#554410, BD Biosciences), anti-IL-2 mAb (Cat#554424, BD Biosciences), biotin-anti-IL-2 mAb (Cat#554426, BD Biosciences), streptavidin horseradish peroxidase (Cat#434323, Invitrogen), and TMB peroxidase EIA substrate kit (Cat#1721066, BioRad). […]

Jurkat cells = experiment: MTS assay (cytotoxicity); type: cell-based; conditions: 0 to 100 µM, 3 days
Method: Jurkat cells were cultured at 37 °C with 5% CO2 in RPMI 1640 Medium (cat#72400047; Thermo Fisher) in the presence or absence of pyrrothiogatain (0 to 100 µM). Cell viability was measured using a CellTiter 96® AQueous One Solution Cell Proliferation Assay (cat#G3582; Promega) according to the manufacturer’s protocol.

GATA3 expression = experiment: Immunoblot of GATA3, naive CD4+ T cells under Th2 conditions; type: cell-based, mouse; conditions: 80 µM, 5 days
Method: Figure 5 Pyrrothiogatain inhibits Th2 cell differentiation and production of Th2 cytokines. (A) Intracellular staining of IL-5/IL-13, IL-4/IFN-γ, and IL-2/IFN-γ in naive CD4^+ T cells cultured under Th2 conditions in the presence or absence of pyrrothiogatain (30 and 80 µM) for five days. (B) Cytokine production induced in the pyrrothiogatain treated Th2 cells shown in panel (A) was determined by ELISA. (C) Quantitative RT-PCR analysis of the pyrrothiogatain-treated Th2 cells shown in panel (A). (D) Immunoblot analysis of GATA3 in naive CD4^+ T cells cultured under Th2 conditions in the presence or absence of pyrrothiogatain (80 µM) for 5 days. (E) Cytokine production from Th2 cells stimulated with immobilized anti-TCRβ mAb for 16 h in the presence or absence of pyrrothiogatain (0 to 100 µM). The amounts of IL-4, IL-5 and IL-13 in the culture supernatants were determined by ELSA. In (B), (C) and (E), all data are expressed as individual points of three independent experiments with error bars indicating standard deviation. […]

Which results are given for `Cc1ccc(C)n1-c1ccsc1C(=O)O` [Pyrrothiogatain, 3-(2,5-dimethyl-1H-pyrrol-1-yl)thiophene-2-carboxylic acid]?
Production of IL-4, IL-5 and IL-13 (ELISA) (Th2 cytokines): Decreased; Cell viability (Jurkat cells): did not influence cell viability; Expression of GATA3, protein level (GATA3 expression): not influenced
